Assay results reported in a melting point compilation (Tetko et al.; mined from patent text by program, amines drawn as free bases though some values may be those of a salt).

Row | Structure (SMILES) | melting point [°C]
1 | O=C1C=C(c2c[nH]c3ccc(O)cc23)C(=O)N1 | 292 to 298
2 | CCc1cn(C(C)(C)C(=O)N(C)C)nc1-c1ccccc1Cl | 102 to 104
3 | CNc1ccc(Cl)cc1C(=N)c1ccccc1 | 93 to 95
4 | O=S(=O)(Nc1ccc(Oc2ccc3cccnc3c2)cc1)c1ccc(Cl)cc1 | 208
5 | CNc1c(F)c(F)c(F)c2c1c(=O)c(C(=O)O)cn2C1CC1 | 205 to 207
6 | CCn1nc(-c2ccccc2)c(C(C)=O)c(Nc2cccc3nnc(C)cc23)c1=O | 235 to 238
7 | COc1cc(Nc2ncc(C#N)c(-c3ccccc3)n2)cc(OC)c1OC | 98
8 | Cc1ccccc1-c1c(C(=O)N(C)Cc2cc(C(F)(F)F)cc(C(F)(F)F)c2)n(C)c(=O)c2cccnc12 | 183 to 185
9 | CC(O)(c1cccc(C(F)(F)F)c1)c1cc2cccc(-c3cccc(C(=O)NCCO)c3)c2s1 (configuration not stated) | 176 to 177
10 | O=c1ccc2cnc(Nc3ccccc3)nc2n1CCCOc1ccccc1 | 175 to 176
11 | Cc1cc(COc2ccc(C(=O)NC[C@@H](C(=O)NO)N3CCN(S(=O)(=O)C(C)C)CC3)cc2)c2ccccc2n1 | 188
12 | CC(C)C(CN1CCCC1)C(=O)c1cc(-c2ccccc2)no1 (configuration not stated) | 77 to 79
13 | CC(C)(C)OC(=O)C(=CC1C(C(=O)O)C1(C)C)OC(C)(C)C (configuration not stated) | 85
14 | Cc1nc(C)n2c1CN=C(c1ccccc1F)c1cc(Cl)ccc1-2 | 178 to 180
15 | CCOc1ccc2ccccc2c1C(=O)N[C@H](Cc1ccc(C(F)(F)F)cc1)[C@H](O)c1ccc(F)cc1 (racemic) | 157 to 158
16 | N#Cc1coc2ccc3ccc(O)cc3c2c1=O | 289 to 292
17 | COc1ccccc1N(C)[C@@H](C)[C@H](O)c1ccccc1 | 84 to 86
18 | CC(=NOCCOc1ccc(CC2SC(=O)NC2=O)cc1)c1ccc(-c2ccc(F)cc2)cc1 (configuration not stated) | 155 to 156
19 | O=C(c1ccc(O)c(Cl)c1)c1ccc(Cl)cc1Cl | 145

Other lines, results leading:

Row | melting point [°C] | Structure (SMILES)
20 | 237 to 241 | CNC(=O)N[C@H]1CC[C@H](CCN2CCN(c3ccc(OC)c(Cl)c3Cl)CC2)CC1
21 | 75 | O=C(O)c1ccc(S(=O)(=O)Oc2ccc(-c3ccc(-c4c(Cc5ccccc5)oc5ccccc45)cc3)cc2[N+](=O)[O-])cc1O
22 | 70 | CC(C)(C(=O)c1ccccc1)S(=O)(=O)c1ccccc1
23 | 208 to 210 | ON=Cc1ncc(-c2ccccc2)o1
24 | 95 to 97 | CN(C)S(=O)(=O)c1ccc([N+](=O)[O-])cc1C(F)(F)F
25 | 78.5 to 80.5 | Cn1cnc(C2C(Cl)=CC=CC2(F)Cc2ccc(Cl)cc2)n1 (configuration not stated)
26 | 172 to 177 | O=C(O)c1cc(C(c2ccccc2)c2ccccc2)ccn1
27 | 105 to 107 | CC(C)(C)OC(=O)NC(Cc1ccc([N+](=O)[O-])cc1)C(=O)O (configuration not stated)
28 | 131 to 132 | CC(C)Cn1c(CN2C(=O)c3ccccc3C2=O)c(OCCCC(F)(F)F)c2cc(OCc3ccccc3)ccc2c1=O
29 | 98 to 99 | CCOC(=O)CN(C)C(=O)c1ccccc1C(=O)c1cc(C(C)(C)C)c(O)c(C(C)(C)C)c1
30 | 152 to 153 | CN(C)c1ccc(/C=C/c2c(F)cccc2F)c([N+](=O)[O-])c1
31 | 169 to 171 | CCCc1nc2cccc(C(=O)O)c2n1Cc1ccc(-c2ccccc2-c2nc(=O)o[nH]2)cc1
32 | 250 to 252 | COc1ccc2c(c1)c(-c1cc3c(Cl)ccnc3[nH]1)cn2C
33 | 126 to 128 | CCCc1nc2cc(C(=O)c3ccccc3)ccc2n1Cc1ccc(C(=O)OCC)cc1
34 | 99 to 101 | COC(=O)CCC(=O)c1ccc(-c2cccc(F)c2)cc1
35 | 105 | CCc1cccc(C)c1CNc1nc(OCCOC)cc2c1nc(C)n2C
36 | 143 to 145 | C#CCN1C(=O)COc2ccc(-n3c(Cl)nc(C(F)(F)F)cc3=O)cc21
37 | 136 to 138 | C(=CCN(C1CCCCC1)C1CCCCC1)CN(C1CCCCC1)C1CCCCC1
